Measurements taken from patent publication US20210386068A1, “COMPOSITIONS COMPRISING PYRIDINE CARBOXYLATE HERBICIDES AND VERY LONG CHAIN FATTY ACID (VLCFA) SYNTHESIS INHIBITOR HERBICIDES” (priority 2018, published 2021).

Assays:
Format in all cases: in vivo
[1] = system: Polygonum convolvulus (wild buckwheat, POLCO); assay: Greenhouse postemergence herbicidal effect, visual injury 20-22 d after spraying, wild buckwheat (POLCO); conditions: POLCO
Description: (§1) Seeds of the desired test plant species were planted in a 90:10% v/v (volume/volume) mixture of PRO-MIX® BX (Premier Tech Horticulture, Quakertown, Pa., USA) and PROFILE® GREENS GRADE™ (Profile Products LLC, Buffalo Grove, Ill., USA) planting mixture, which typically has a pH of 5.2 to 6.2 and an organic matter content of at least 50 percent, in plastic pots with a surface area of 103.2 square centimeters (cm^2). In some aspects, to ensure good germination and healthy plants, a fungicide treatment and/or other chemical or physical treatment was applied. The plants were grown for 7-36 days (d) in a greenhouse with an approximate 14-hour (h) photoperiod which was maintained at about 23° C. during the day and 22° C. during the night. Nutrients and water were added on a regular basis and supplemental lighting was provided with overhead metal halide 1000-Watt lamps as necessary. The plants were employed for testing when they reached the second or third true leaf stage.
(§2) Emulsifiable concentrates of each of each pyridine carboxylate herbicide (Compound A or Compound B) were prepared at 100 grams acid equivalent per liter (g ae/L). The emulsifiable concentrates also included a safener, cloquintocet-mexyl, at 120 grams active ingredient per liter (g ai/L). An aliquot of each emulsifiable concentrate was placed in a 25 mL glass vial and diluted with an aqueous mixture of 1.25% (v/v) ACTIROB® B esterified rapeseed oil (Bayer Crop Science, Research Triangle Park, N.C., USA) or MSO® Concentrate with LECI-TECH® methylated soybean oil (Loveland Products, Loveland, Colo., USA) to obtain concentrated stock solutions at the highest application rate for each herbicide, based upon a 12 milliliter (mL) application volume at a rate of 187 liters per hectare (L/ha). The concentrated stock solutions were further diluted with an aqueous mixture of 1.25% v/v ACTIROB® B or MSO® Concentrate with LECI-TECH® to obtain stock solutions at reduced application rates for each herbicide. Spray solutions of the herbicide combinations (Compound A or Compound B plus VLCFA synthesis inhibitor herbicide) were prepared by adding weighed amounts or aliquots of the VLCFA synthesis inhibitor herbicide to the stock solutions of Compound A or Compound B to form 12-mL spray solutions in two-way combinations.
(§3) The spray solutions were applied to the plant material with an overhead Mandel track sprayer equipped with 8002E nozzles calibrated to deliver 187 L/ha over an application area of 0.503 square meters (m^2) at a spray height of 18 inches ([…] (cm)) above the average plant canopy. Control plants were sprayed in the same manner with the solvent blank. All pyridine carboxylate herbicide (component a) application rates are given as “g ae/ha” and all VLCFA synthesis inhibitor herbicide (component b) application rates are given as “g ai/ha.”
(§4) The treated plants and control plants were placed in a greenhouse as described above and watered by sub-irrigation to prevent wash-off of the test compounds. After 20-22 d, the condition of the test plants as compared with that of the control plants was determined visually and scored on a scale of 0 to 100 percent where 0 corresponds to no injury and 100 corresponds to complete kill.

[2] = system: Cirsium arvense (Canadian thistle, CIRAR); assay: Greenhouse postemergence herbicidal effect, visual injury 20-22 d after spraying, Canadian thistle (CIRAR); conditions: CIRAR
Description: as §1, §2, §3, §4

[3] = system: Salsola kali (Russian thistle, SASKR); assay: Greenhouse postemergence herbicidal effect, visual injury 20-22 d after spraying, Russian thistle (SASKR); conditions: SASKR
Description: as §1, §2, §3, §4

[4] = system: Amaranthus retroflexus (pigweed, AMARE); assay: Greenhouse postemergence herbicidal effect, visual injury 20-22 d after spraying, pigweed (AMARE)
Description: as §1, §2, §3, §4

[5] = system: Matricaria chamomilla (wild chamomile, MATCH); assay: Greenhouse postemergence herbicidal effect, visual injury 20-22 d after spraying, wild chamomile (MATCH); conditions: MATCH
Description: as §1, §2, §3, §4

[6] = system: Kochia scoparia (kochia, KCHSC); assay: Greenhouse postemergence herbicidal effect, visual injury 20-22 d after spraying, kochia (KCHSC); conditions: KCHSC
Description: as §1, §2, §3, §4

[7] = system: Brassica napus (winter rape, BRSNW); assay: Greenhouse postemergence herbicidal effect, visual injury 20-22 d after spraying, winter rape (BRSNW); conditions: BRSNW
Description: as §1, §2, §3, §4

[8] = system: Sinapis arvensis (wild mustard, SINAR); assay: Greenhouse postemergence herbicidal effect, visual injury 20-22 d after spraying, wild mustard (SINAR); conditions: SINAR
Description: as §1, §2, §3, §4

[9] = system: Chenopodium album L. (common lambsquarters, CHEAL); assay: Greenhouse postemergence herbicidal effect, visual injury 20-22 d after spraying, common lambsquarters (CHEAL)
Description: as §1, §2, §3, §4

[10] = system: Brassica napus (spring rape, BRSNN); assay: Greenhouse postemergence herbicidal effect, visual injury 20-22 d after spraying, spring rape (BRSNN)
Description: as §1, §2, §3, §4

[11] = system: Hordeum vulgare (spring barley, HORVS); assay: Greenhouse postemergence crop phytotoxicity, visual injury 20-22 d after spraying, spring barley (HORVS); conditions: HORVS
Description: as §1, §2, §3, §4

[12] = system: Triticum aestivum (spring wheat, TRZAS); assay: Greenhouse postemergence crop phytotoxicity, visual injury 20-22 d after spraying, spring wheat (TRZAS); conditions: TRZAS
Description: as §1, §2, §3, §4

CCCCOCN(C(=O)CCl)c1c(CC)cccc1CC [Butachlor, N-(butoxymethyl)-2-chloro-N-(2,6-diethylphenyl) acetamide]
% visual injury Obs ([1]; Butachlor 450 g/ha alone): 0% | % visual injury Obs ([2]; Butachlor 450 g/ha alone): 0% | % visual injury Obs ([3]; Butachlor 450 g/ha alone): 0% | % visual injury Obs ([4]; Butachlor 450 g/ha alone): 0% | % visual injury Obs ([5]; Butachlor 450 g/ha alone): 5% | % visual injury Obs ([6]; Butachlor 450 g/ha alone): 0% | % visual injury Obs ([7]; Butachlor 450 g/ha alone): 0% | % visual injury Obs ([8]; Butachlor 450 g/ha alone): 0% | % visual injury Obs ([9]; Butachlor 450 g/ha alone): 0%

CCN(CC)C(=O)n1cnc(S(=O)(=O)c2c(C)cc(C)cc2C)n1 [Cafenstrole, N,N-diethyl-3-[(2,4,6-trimethylphenyl)sulfonyl]-1H-1,2,4-triazole-1-carboxamide]
% visual injury Obs ([1]; Cafenstrole 52.5 g/ha alone): 5% | % visual injury Obs ([3]; Cafenstrole 52.5 g/ha alone): 0% | % visual injury Obs ([10]; Cafenstrole 52.5 g/ha alone): 5% | % visual injury Obs ([5]; Cafenstrole 52.5 g/ha alone): 5% | % visual injury Obs ([6]; Cafenstrole 52.5 g/ha alone): 5% | % visual injury Obs ([11]; Cafenstrole 52.5 g/ha alone): 0% | % visual injury Obs ([12]; Cafenstrole 52.5 g/ha alone): 0% | % visual injury Obs ([8]; Cafenstrole 52.5 g/ha alone): 0% | % visual injury Obs ([9]; Cafenstrole 52.5 g/ha alone): 0%

COC[C@H](C)N(C(=O)CCl)c1c(C)csc1C [Dimethenamid-P, (S)-2-chloro-N-(2,4-dimethyl-3-thienyl)-N-(2-methoxy-1-methyl-ethyl)acetamide]
% visual injury Obs ([1]; Dimethenamid-P 560 g/ha alone): 0% | % visual injury Obs ([2]; Dimethenamid-P 560 g/ha alone): 0% | % visual injury Obs ([3]; Dimethenamid-P 560 g/ha alone): 0% | % visual injury Obs ([4]; Dimethenamid-P 560 g/ha alone): 10% | % visual injury Obs ([10]; Dimethenamid-P 560 g/ha alone): 0% | % visual injury Obs ([5]; Dimethenamid-P 560 g/ha alone): 0% | % visual injury Obs ([6]; Dimethenamid-P 560 g/ha alone): 0% | % visual injury Obs ([8]; Dimethenamid-P 560 g/ha alone): 0% | % visual injury Obs ([9]; Dimethenamid-P 560 g/ha alone): 0%

CCN(C(=O)n1nnn(-c2ccccc2Cl)c1=O)C1CCCCC1 [Fentrazamide, 4-(2-chlorophenyl)-N-cyclohexyl-N-ethyl-4,5-dihydro-5-oxo-1H-tetrazole-1-carboxamide]
% visual injury Obs ([1]; Fentrazamide 200 g/ha alone): 5% | % visual injury Obs ([2]; Fentrazamide 200 g/ha alone): 0% | % visual injury Obs ([3]; Fentrazamide 200 g/ha alone): 0% | % visual injury Obs ([4]; Fentrazamide 200 g/ha alone): 0% | % visual injury Obs ([5]; Fentrazamide 200 g/ha alone): 0% | % visual injury Obs ([6]; Fentrazamide 200 g/ha alone): 0% | % visual injury Obs ([11]; Fentrazamide 200 g/ha alone): 0% | % visual injury Obs ([7]; Fentrazamide 200 g/ha alone): 0% | % visual injury Obs ([12]; Fentrazamide 200 g/ha alone): 0% | % visual injury Obs ([8]; Fentrazamide 200 g/ha alone): 0% | % visual injury Obs ([9]; Fentrazamide 200 g/ha alone): 0%

CN(C(=O)COc1nc2ccccc2s1)c1ccccc1 [Mefenacet, 2-(2-benzothiazolyloxy)-N-methyl-N-phenylacetamide]
% visual injury Obs ([1]; Mefenacet 50 g/ha alone): 0% | % visual injury Obs ([3]; Mefenacet 50 g/ha alone): 0% | % visual injury Obs ([10]; Mefenacet 50 g/ha alone): 5% | % visual injury Obs ([5]; Mefenacet 50 g/ha alone): 0% | % visual injury Obs ([6]; Mefenacet 50 g/ha alone): 0% | % visual injury Obs ([8]; Mefenacet 50 g/ha alone): 0% | % visual injury Obs ([9]; Mefenacet 50 g/ha alone): 0%

CCOCCN(C(=O)CCl)C(=C(C)C)c1ccccc1 [Pethoxamid, 2-chloro-N-(2-ethoxyethyl)-N-(2-methyl-1-phenyl-1-propen-1-yl)acetamide]
% visual injury Obs ([1]; Pethoxamid 600 g/ha alone): 0% | % visual injury Obs ([2]; Pethoxamid 600 g/ha alone): 0% | % visual injury Obs ([3]; Pethoxamid 600 g/ha alone): 0% | % visual injury Obs ([4]; Pethoxamid 600 g/ha alone): 0% | % visual injury Obs ([5]; Pethoxamid 600 g/ha alone): 0% | % visual injury Obs ([6]; Pethoxamid 600 g/ha alone): 0% | % visual injury Obs ([11]; Pethoxamid 600 g/ha alone): 0% | % visual injury Obs ([7]; Pethoxamid 600 g/ha alone): 0% | % visual injury Obs ([12]; Pethoxamid 600 g/ha alone): 0% | % visual injury Obs ([8]; Pethoxamid 600 g/ha alone): 0% | % visual injury Obs ([9]; Pethoxamid 600 g/ha alone): 0%

Cn1nc(C(F)(F)F)c(CS(=O)(=O)C2=NOC(C)(C)C2)c1OC(F)F [Pyroxasulfone, 3-[[[5-(difluoromethoxy)-1-methyl-3-(trifluoromethyl)-1H-pyrazol-4-yl]methyl]sulfonyl]-4,5-dihydro-5,5-dimethylisoxazole]
% visual injury ([1]; Pyroxasulfone 100 g/ha alone): 0% | % visual injury ([2]; Pyroxasulfone 100 g/ha alone): 0% | % visual injury ([3]; Pyroxasulfone 100 g/ha alone): 10% | % visual injury ([4]; Pyroxasulfone 100 g/ha alone): 5% | % visual injury ([5]; Pyroxasulfone 100 g/ha alone): 0% | % visual injury ([6]; Pyroxasulfone 100 g/ha alone): 0% | % visual injury ([7]; Pyroxasulfone 100 g/ha alone): 5% | % visual injury ([8]; Pyroxasulfone 100 g/ha alone): 28% | % visual injury ([9]; Pyroxasulfone 100 g/ha alone): 0%

S-Metolachlor
% visual injury Obs ([1]; S-Metolachlor 500 g/ha alone): 0% | % visual injury Obs ([2]; S-Metolachlor 500 g/ha alone): 0% | % visual injury Obs ([3]; S-Metolachlor 500 g/ha alone): 0% | % visual injury Obs ([4]; S-Metolachlor 500 g/ha alone): 0% | % visual injury Obs ([5]; S-Metolachlor 500 g/ha alone): 0% | % visual injury Obs ([6]; S-Metolachlor 500 g/ha alone): 0% | % visual injury Obs ([11]; S-Metolachlor 500 g/ha alone): 0% | % visual injury Obs ([7]; S-Metolachlor 500 g/ha alone): 0% | % visual injury Obs ([12]; S-Metolachlor 500 g/ha alone): 0% | % visual injury Obs ([8]; S-Metolachlor 500 g/ha alone): 0% | % visual injury Obs ([9]; S-Metolachlor 500 g/ha alone): 0%
